{
  "source": "patent EP4643861A1",
  "about": "“A HALOGENATED-HETEROARYL KINASE INHBITOR FOR TREATING SOFT TISSUE SARCOMA AND VASCULAR TUMORS” (iOmx Therapeutics AG, priority 2024, dated 2025)",
  "key": {"[1]": {"test_system": "Human Patient-Derived Xenograft (PDX) Angiosarcoma", "test": "E9 monotherapy efficacy in Human Patient-Derived Xenograft (PDX) Angiosarcoma model", "assay_type": "in vivo, immuno-deficient NOD scid gamma (NOG) mice", "conditions": "BID × 23, termination at day 23", "excerpt": "This Angiosarcoma PDX model was used for preclinical evaluation of E9 in Angiosarcoma due to the retention of tumor heterogeneity and biological characteristics. Additionally, due to the rare indication, no murine syngeneic or human xenograft models are available.\nBriefly, immuno-deficient NOD scid gamma (NOG) mice, were housed in a controlled environment conducive to tumor growth. Human PDX tumor samples, obtained from a patient with Angiosarcoma (Epitheloid AS […]), were implanted subcutaneously into the mice. Tumor growth was monitored using non-invasive caliper method and was calculated by the following formula: volume = (width)2 × (length)/2. Animals were randomized into treatment groups at a tumor volume (TV) of ~160mm3 (Table 1). Treatment started after randomization twice daily until termination at day 23 when Vehicle animals reached termination criteria due to TV. Table 1: Example treatment groups."}, "[2]": {"test_system": "secondary radiation-induced cutaneous angiosarcoma", "test": "Treatment of a secondary angiosarcoma in a patient (dose escalation study)", "assay_type": "in vivo, human", "protocol": "Clinical responder patient suffered from a secondary radiation-induced cutaneous angiosarcoma. The patient, who previously received radiotherapy in context of a treatment of breast cancer, developed secondary angiosarcoma. The angiosarcoma was treated with chemotherapy including paclitaxel, doxorubicin and cyclophosphamide the patient developed treatment resistance to the chemotherapy. In the following the patient received E9 in context of a dose excalation study in which E9 was administered orally every 12h (i.e. twice daily) for 28 days per treatment cycle. E9 daily doses were escalated from 10mg to 30mg and finally 60mg E9 during the then following continuous treatment."}},
  "data": [
    {"molecule": "Cc1nc(Nc2ncc(C(=O)Nc3c(CF)csc3Cl)s2)cc(N2CCN(C)CC2)n1", "note": "[E9, N-(2-chloro-4-(fluoromethyl)thiophen-3-yl)-2-((2-methyl-6-(4-methylpiperazin-1-yl)pyrimidin-4-yl)amino)thiazole-5-carboxamide]", "values": [
      {"measurement": "tumor growth inhibition (TGI)", "setting": "[1]; 25mg/kg E9, p.o.", "value": 55, "unit": "%"},
      {"measurement": "tumor size at termination compared to treatment start", "setting": "[1]; 50 mg/kg E9, p.o.", "value": "tumor regression"},
      {"measurement": "duration of maintained near-complete response", "setting": "[2]; further treatment with 60mg daily E9", "value": "over 10 months"},
      {"measurement": "tolerability", "setting": "[2]; orally every 12h, 28 days per cycle, daily doses escalated from 10mg to 30mg and finally 60mg", "value": "well tolerated"},
      {"measurement": "clinical response (reduction of cutaneous lesions)", "setting": "[2]; patient resistant to paclitaxel, doxorubicin and cyclophosphamide, E9 orally twice daily", "value": "near-complete response"}
    ]}
  ]
}
